Test: Pharmacokinetics in rats after oral administration
Assay type: in vivo
Conditions: male, SD, blood
Description: Investigations on the pharmacokinetic characteristics of MEK162 free base single compound (group A), equimolar physical mixture of MEK162 and LEE011 succinate (group B) and co-crystal Form I of MEK162-LEE011 (group C) in the rats were conducted. Male SD rats with standard weight were chosen as experimental objects, three rats in a group and were orally administrated. The dosage in group A was 5 mg·kg^−1 (calculated as free base), the dosages of two components in group B were both 5 mg·kg^−1 (calculated as free base), the dosage in group C was 10 mg·kg^−1 (calculated as co-crystal anhydrate form), and dosage of these two components was around 5 mg·kg^−1 (calculated as free base) as calculated by molecular weight.

- Tmax (5 mg·kg^−1, rat, read-out: time to reach maximum concentration (Tmax)): 15 min
- AUC(0-inf) (rat, about 5 mg·kg^−1 of each component as free base, read-out: AUC0-inf of MEK162): 11300 ± 895 ng·h/mL
- Cmax (rat, about 5 mg·kg^−1 of each component as free base, read-out: maximum concentration of blood drug (Cmax) of MEK162): 3240 ± 576 ng/mL
Structure (SMILES): Cn1cnc2c(F)c(Nc3ccc(Br)cc3F)c(C(=O)NOCCO)cc21 [MEK162, 5-[(4-bromo-2-fluorophenyl)amino]-4-fluoro-N-(2-hydroxyethoxy)-1-methyl-1H-benzimidazol-6-carboxamide]
